Among the data in PubChem BioAssay (NCI) are TGI values, retold here.

Where “and” joins values, the source holds several entries; their conditions need not be identical. Equal values may be shown once.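 How tested: cells in 96-well plates exposed to compound for 48 hours at five concentrations. The concentration for full growth arrest is given as TGI.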 Bounds are passed on as bounds.

Holding throughout (experiment): NCI anticancer screen, dose series, 48 h
For assay [1], the system named is A549 NSCLC.
Assay [2] concerns OVCAR-4 ovarian.
Assay [3] has as its system UACC-62 melanoma.
For assay [4], the system named is SK-MEL-5 melanoma.
Assay [5] concerns NCI-H460 lung.
Assay [6] relates to OVCAR-5 ovarian.
Assay [7] deals with 786-0 renal.
For assay [8], the system named is MOLT-4 leukemia.
Assay [9] concerns HCT-116 colon.
Assay [10] relates to SW-620 colon.
Assay [11] concerns SK-OV-3 ovarian.

On to `O=C(/C=C/c1ccc(O)c(O)c1)OCCCc1ccccc1`, for which the TGI in assay [1] stood at 31.3 µM; in [2] it was 20.7 µM; in [3], 23.6 µM; in assay [4], 26.3 µM; in [5], 55.6 µM; in assay [6], 37.3 µM. For the same compound, the TGI came out at 18.1 µM in assay [7]; 36.4 µM in [8]; 22.4 µM in [9]; 32 µM in assay [10]; 58.9 µM in assay [11].
For `CC(=O)OCCCOCn1c(Cc2ccccc2)c(C)c(=O)[nH]c1=O`, the TGI in assay [1], in assay [2], in assay [3], in assay [4], in [5] and in assay [6] was over 100 µM in each case. In addition, the TGI in [7], in [8], in assay [9], in [10] and in assay [11] was over 100 µM each time.
As to `Cc1[nH]c2c(c1C)S(=O)(=O)c1cc3ccccc3nc1N2`, the TGI was over 100 µM in assay [1]; 32.4 µM in [2]; over 100 µM in [3]; 28.8 µM in assay [4]; over 100 µM in assay [5]; 59 µM in assay [6]. The TGI is 30.4 µM in assay [7]; over 100 µM in [8]; over 100 µM in assay [9]; over 100 µM in [10]; over 100 µM in [11].
In the case of `COC(=O)C1Cc2c(OC)ccc(OC)c2CC(C(=O)OC)C1=O` (stereo not given), the TGI in [1], in assay [2], in [3], in [4], in assay [5] and in assay [6] was over 100 µM throughout. Further, the TGI in assay [7], in assay [8], in [9], in assay [10] and in assay [11] was over 100 µM in each case.
As for `OC(c1cc2ccccc2o1)c1cc2ccccc2s1` (stereo not given), the TGI in [1], in [2], in [3], in [4], in assay [5] and in [6] was over 10 µM in each case. In addition, the TGI in [7], in [8], in assay [9], in assay [10] and in [11] was over 10 µM throughout.
Consider `COc1ccc2nc3ccc(OC)cc3c(SCCO)c2c1`, for which the TGI in [1], in [2], in assay [3], in [4], in [5] and in assay [6] was over 100 µM in each case. In addition, the TGI in assay [7] is over 60 µM; in assay [8] it was over 30.3 µM; in assay [9], over 69.8 µM; in [10] it was over 100 µM; in assay [11] it was over 100 µM.
Regarding `CC(O)c1cc2c(s1)C(=O)c1sccc1C2=O` (stereo not given), the TGI in assay [1] is 0.767 µM; in assay [2] it was 0.344 µM; in [3] it was 0.126 µM; in assay [4], 0.0362 µM; in [5], 0.268 µM; in [6], 0.368 µM. In addition, the TGI in [7] is 0.538 µM; in [8], over 100 µM; in [9] it was 0.485 µM; in [11], 4.18 µM.
As for `Nc1ncnc2c1nnn2C1C=CC(COS(N)(=O)=O)C1` (stereo not given), the TGI in assay [1] was over 100 µM; in assay [2], 62.3 µM; in [3], 35.4 µM; in [4], 15.9 µM; in assay [5] it was over 100 µM; in assay [6] it was 49.3 µM. The TGI in [7] is 33.3 µM; in assay [8] it was over 100 µM; in assay [9], 36.3 µM; in assay [10] it was over 100 µM; in assay [11] it was over 100 µM.
Consider `CC(C)/C(Cl)=N\OC(=O)Nc1ccccc1F`, for which the TGI turned out to be 35.6 µM in assay [1]; 31.7 µM in [2]; 36.6 µM in [3]; 27.9 µM in assay [4]; 36.2 µM in assay [5]; 33.3 µM in assay [6]. Moreover, the TGI in assay [7] came out at 29.9 µM; in [8], 12.4 µM; in assay [9], 23.9 µM; in [10] it was 3.59 µM; in [11], 33.4 µM.
Turning to `O=C1Nc2ccccc2C12CCNC2Cc1ccccc1` (stereo not given), the TGI in [1], in assay [2], in assay [3], in assay [4], in [5] and in assay [6] was over 100 µM in each case. The TGI in [7], in assay [8], in [9], in assay [10] and in assay [11] was over 100 µM each time.
`COc1ccc2c(CCN)c(C(=O)O)[nH]c2c1`: the TGI in [1], in assay [2], in [3], in [4], in assay [5] and in assay [6] was over 100 µM each time. In addition, the TGI in assay [7], in [8], in [9], in assay [10] and in [11] was over 100 µM each time.
Regarding `C[C@H](CCC(=O)NCCS(=O)(=O)O)[C@H]1CC[C@H]2[C@@H]3CC[C@@H]4C[C@H](O)CC[C@]4(C)[C@H]3CC[C@]12C`, the TGI in [1], in assay [2], in assay [3], in [4], in assay [5] and in assay [6] was over 100 µM in each case. Also, the TGI in assay [7], in [8], in [9], in assay [10] and in assay [11] was over 100 µM in each case.
Turning to `COC(=O)C(Cc1c(C2Nc3ccccc3C2CC(NC(=O)CNC(C)=O)C(=O)OC)[nH]c2ccccc12)NC(=O)CNC(C)=O` (stereo not given), the TGI in assay [1], in assay [2], in [3], in assay [4], in assay [5] and in assay [6] was over 100 µM each time. Further, the TGI in assay [7], in [8], in assay [9], in assay [10] and in assay [11] was over 100 µM throughout.
`COC(=O)C1=C(C(=O)OC)C(C(=O)c2ccc(Br)cc2)N2N=C(c3ccc(Cl)cc3)C=CC12` (stereo not given): the TGI in assay [1], in assay [2], in [3], in assay [4], in assay [5] and in [6] was over 100 µM in each case. The TGI in assay [7], in assay [8], in assay [9], in assay [10] and in assay [11] was over 100 µM throughout.
In the case of `COC(=O)NCCc1[nH]nc2c1C(=O)C=C(N1CCOCC1)C2=O`, the TGI in [1], in assay [2], in assay [3], in assay [4], in assay [5] and in assay [6] was over 100 µM each time. Besides, the TGI in assay [7], in assay [8], in assay [9], in [10] and in assay [11] was over 100 µM throughout.
With `COc1ccc(-c2cc(=O)c3cc4c(cc3[nH]2)OCO4)cc1OC`, the TGI in [1], in assay [2], in assay [3], in [4], in assay [5] and in assay [7] was over 100 µM each time. Further, the TGI in [8], in assay [9], in [10] and in assay [11] was over 100 µM each time.
As to `COC(=O)/C(=C\Nc1cccc(C)n1)S(=O)(=O)c1ccc(C)cc1`, the TGI is over 100 µM in [1]; over 100 µM in assay [2]; 91.5 µM in assay [3]; over 100 µM in [4]; over 100 µM in assay [5]; over 100 µM in assay [6]. The TGI in assay [7] is over 100 µM; in [8], 70.4 µM; in [9], over 100 µM; in assay [10], over 100 µM; in assay [11] it was over 100 µM.
In the case of `CC(=O)OC(/C=C/c1ccccc1)P1(=O)N(CC(C)(C)C)[C@@H]2CCCC[C@H]2N1CC(C)(C)C` (stereo not given in full), the TGI is 17.3 µM and 18.5 µM in assay [1]; 20.5 µM and 19.7 µM in [2]; 21.1 µM and 23.2 µM in [3]; 17.4 µM and 18.7 µM in assay [4]; 21.1 µM and 19 µM in assay [5]; 23.4 µM and 23.5 µM in assay [6]. The TGI was 21.4 µM and 21.1 µM in assay [7]; 17.1 µM and 14.7 µM in assay [8]; 15 µM and 13.4 µM in assay [9]; 31.3 µM and 20.7 µM in [10]; 37.4 µM and 25.7 µM in assay [11].
On to `O=C(O)c1cc2ccccc2c(N=Nc2ccc(S(=O)(=O)Nc3nccs3)cc2)c1O`, for which the TGI in assay [1], in assay [2], in [3], in assay [4], in assay [5] and in assay [6] was over 100 µM in each case. Moreover, the TGI in [7], in assay [8], in [9], in assay [10] and in assay [11] was over 100 µM each time.
As for `CCCN1C(=O)CC(C)N(Cc2ccccc2Cl)C1=S` (stereo not given), the TGI was over 100 µM in assay [1]; over 100 µM in [2]; 46.3 µM in assay [3]; 33.4 µM in [4]; over 100 µM in assay [5]; over 100 µM in [6]. In addition, the TGI was over 100 µM in [7]; over 100 µM in [8]; 79.4 µM in [9]; over 100 µM in assay [10]; over 100 µM in [11].
As for `Cc1nc(Nc2ccc(Cl)cc2)sc1C(=O)NNc1ccc([N+](=O)[O-])cc1[N+](=O)[O-]`, the TGI in assay [1] was 34.2 µM; in [2], 35.3 µM; in [3], 28.6 µM; in assay [4], 30.2 µM; in assay [5], 34.7 µM; in [6], 30.7 µM. Also, the TGI in [7] worked out at 29.8 µM; in [8], 46.7 µM; in assay [9], 26.7 µM; in [10] it was 43.5 µM; in assay [11], 52.3 µM.
For the compound `COC(=O)c1c(O)ccc2c1c1c(n2Cc2ccccc2Cl)C(=O)c2ccccc2C1=O`, the TGI in [1] worked out at 26.7 µM; in [2], 12.6 µM; in assay [3], 30.2 µM; in [4], 26.4 µM; in assay [5] it was 23.5 µM; in assay [6] it was 39.4 µM. Further, the TGI in [7] worked out at 36.4 µM; in [8], 56.1 µM; in assay [9], 31.2 µM; in [11], 27.2 µM.
For the compound `CCC(CON(C)c1ccccc1)(SC)SC`, the TGI in assay [1], in assay [2], in assay [3], in assay [4], in assay [5] and in assay [6] was over 100 µM throughout. Also, the TGI in assay [7], in assay [8], in assay [9], in [10] and in [11] was over 100 µM each time.
On to `CCOC(=O)C1(C/C=C(/C)Cl)CCCC1=O` (stereo not given), for which the TGI in assay [1], in [2], in assay [3], in assay [4], in assay [5] and in assay [6] was over 100 µM in each case. Moreover, the TGI in assay [7], in assay [8], in assay [9] and in [11] was over 100 µM throughout.
`Cc1ccsc1/C=N/Nc1nc2ccccc2s1`: the TGI in assay [1] is 50.5 µM; in assay [2], 72.9 µM; in assay [3] it was over 100 µM; in assay [4] it was 47.9 µM; in assay [6], over 100 µM; in [7], 24.7 µM. Also, the TGI worked out at 31.3 µM in assay [8], 23.2 µM in assay [9], 94.9 µM in [10] and 35.3 µM in [11].
